Seven molecules from publication PMC6891444, “Immune Checkpoint PD-1/PD-L1 CTLA-4/CD80 are Blocked by Rhus verniciflua Stokes and its Active Compounds” (Molecules, 2019) can be followed below.

The target in one experiment is T1, CTLA-4/CD80 interaction (Homo sapiens, UniProt P16410).
T1 construct: purchased BPS Bioscience #71149 (CTLA-4); #71114 (biotinylated CD80)
T1 sequence (P16410 37-162 limits assumed): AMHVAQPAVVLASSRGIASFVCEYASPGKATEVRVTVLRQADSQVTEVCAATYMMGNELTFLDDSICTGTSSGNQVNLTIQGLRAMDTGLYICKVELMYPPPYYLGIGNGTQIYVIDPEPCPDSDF
In words: CTLA-4/CD80 competitive ELISA (Inhibitor Screening Assay Kit). The class given is binding. Conditions: mean of three independent replicates, read-out: IC50, CTLA-4/CD80 blocking effect. As to the method: Competitive ELSIA was performed using a PD–1/PD-L1 or CTLA-4/CD80 Inhibitor Screening Assay Kit, according to the supplier’s instructions. An aliquot of 1 μg/mL recombinant human PD-L1 (BPS Bioscience, #71104) or CTLA-4 (BPS Bioscience, #71149) were coated onto a 96-well plate overnight. Plates were washed with phosphate-buffered saline (PBS) containing 0.1% Tween (PBS-T), blocked for 1 h at room temperature with PBS-T containing 2% (w/v) bovine serum albumen, and washed again. After washing, vehicle or test samples were added, and the reaction continued for 1 h. As a positive control, PD-L1 inhibitor C1 or anti-CTLA-4 neutralizing antibody were used. Biotinylated hPD–1 (BPS Bioscience, #71109) or biotinylated hCD80 (BPS Bioscience, #71114) was added to each well, and plates were incubated for 2 h at room temperature. After three washes with PBS-T, diluted streptavidin-horseradish peroxidase (HRP) was added to each well, and plates were reacted for 1 h while shaking at low speed. After the reaction, plates were washed three times with PBS-T, and HRP substrates A and B were added. Relative chemiluminescence was measured on a SpectraMax L Luminometer (Molecular Devices, San Jose, California, USA) and expressed as the relative binding activity. The results were normalized to the relative percentage of the vehicle control group. Half-maximal inhibitory concentration (IC50) was calculated using Prism “log[inhibitor] vs. normalized response” equation.
(In an ELISA, binding on a coated surface is turned into a signal by an enzyme label.)

The target in another experiment is T2, PD-1/PD-L1 interaction (Homo sapiens, UniProt Q9NZQ7).
T2 construct: purchased BPS Bioscience #71104 (PD-L1); #71109 (biotinylated PD-1)
T2 sequence (Q9NZQ7 19-239 limits assumed): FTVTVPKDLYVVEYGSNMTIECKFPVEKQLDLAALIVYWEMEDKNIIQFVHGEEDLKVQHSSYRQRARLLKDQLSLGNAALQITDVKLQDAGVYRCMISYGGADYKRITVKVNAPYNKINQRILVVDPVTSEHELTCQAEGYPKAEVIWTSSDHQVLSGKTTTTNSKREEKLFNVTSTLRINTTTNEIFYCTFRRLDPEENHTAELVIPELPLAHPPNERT
As to the kind of experiment: PD-1/PD-L1 competitive ELISA (Inhibitor Screening Assay Kit). The class given is binding. The conditions noted are these: mean of three independent replicates, read-out: IC50, PD-1/PD-L1 blocking effect. As to the method: Competitive ELSIA was performed using a PD–1/PD-L1 or CTLA-4/CD80 Inhibitor Screening Assay Kit, according to the supplier’s instructions. An aliquot of 1 μg/mL recombinant human PD-L1 (BPS Bioscience, #71104) or CTLA-4 (BPS Bioscience, #71149) were coated onto a 96-well plate overnight. Plates were washed with phosphate-buffered saline (PBS) containing 0.1% Tween (PBS-T), blocked for 1 h at room temperature with PBS-T containing 2% (w/v) bovine serum albumen, and washed again. After washing, vehicle or test samples were added, and the reaction continued for 1 h. As a positive control, PD-L1 inhibitor C1 or anti-CTLA-4 neutralizing antibody were used. Biotinylated hPD–1 (BPS Bioscience, #71109) or biotinylated hCD80 (BPS Bioscience, #71114) was added to each well, and plates were incubated for 2 h at room temperature. After three washes with PBS-T, diluted streptavidin-horseradish peroxidase (HRP) was added to each well, and plates were reacted for 1 h while shaking at low speed. After the reaction, plates were washed three times with PBS-T, and HRP substrates A and B were added. Relative chemiluminescence was measured on a SpectraMax L Luminometer (Molecular Devices, San Jose, California, USA) and expressed as the relative binding activity. The results were normalized to the relative percentage of the vehicle control group. Half-maximal inhibitory concentration (IC50) was calculated using Prism “log[inhibitor] vs. normalized response” equation. All results are presented as the mean of three independent biological replicates. * p < 0.05, ** p < 0.01, *** p < 0.001, compared with the vehicle control group.

In the case of `O=C(O)/C=C/c1ccc(O)c(O)c1` [Compound 19, caffeic acid], the IC50 at CTLA-4/CD80 interaction worked out at 10 µM.

With `O=C1c2c(O)cc(O)cc2OC(c2ccc(O)c(O)c2)C1O` (stereo not shown) [Compound 5, taxifolin], the IC50 on CTLA-4/CD80 interaction was 35.5 µM.

For the molecule `O=c1c(O)c(-c2ccc(O)c(O)c2)oc2cc(O)ccc12` [Compound 9, fisetin], on PD-1/PD-L1 interaction, the IC50 stood at 0.04 µM.

In the case of `O=C(O)c1ccc(O)c(O)c1` [Compound 2, protocatechuic acid], the IC50 at CTLA-4/CD80 interaction turned out to be 4.51 µM.

As for `O=C1C[C@@H](c2ccc(O)c(O)c2)Oc2cc(O)cc(O)c21` [Compound 7, eriodictyol], on PD-1/PD-L1 interaction, the IC50 stood at 0.04 µM.

For the molecule `O=c1c(O)c(-c2ccc(O)c(O)c2)oc2cc(O)cc(O)c12` [Compound 18, quercetin], at PD-1/PD-L1 interaction, the IC50 is 5.71 µM.

Consider `O=C1C[C@@H](c2ccc(O)cc2)Oc2cc(O)ccc21` [Compound 13, liquiritigenin], for which the IC50 on PD-1/PD-L1 interaction stood at 11.8 µM.
